# Experimental data taken from BindingDB's records for doi:10.1021/acs.jmedchem.7b01344 (Metabasis Therapeutics, 2017).
# pIC50: −log10 of the molar value.
# Legend:
# [1] = molecular target: Prostaglandin D2 receptor 2 (CRTH2) (Homo sapiens) (UniProt Q9Y5Y4); assay: Binding affinity to DP2 receptor (unknown origin)
# [2] = molecular target: Prostaglandin D2 receptor 2 (CRTH2) (Homo sapiens) (UniProt Q9Y5Y4); assay: Binding affinity to DP2 receptor (unknown origin) in presence of 10% human serum
# Chain of Prostaglandin D2 receptor 2 (CRTH2) (Homo sapiens) (Q9Y5Y4 whole entry, looked up): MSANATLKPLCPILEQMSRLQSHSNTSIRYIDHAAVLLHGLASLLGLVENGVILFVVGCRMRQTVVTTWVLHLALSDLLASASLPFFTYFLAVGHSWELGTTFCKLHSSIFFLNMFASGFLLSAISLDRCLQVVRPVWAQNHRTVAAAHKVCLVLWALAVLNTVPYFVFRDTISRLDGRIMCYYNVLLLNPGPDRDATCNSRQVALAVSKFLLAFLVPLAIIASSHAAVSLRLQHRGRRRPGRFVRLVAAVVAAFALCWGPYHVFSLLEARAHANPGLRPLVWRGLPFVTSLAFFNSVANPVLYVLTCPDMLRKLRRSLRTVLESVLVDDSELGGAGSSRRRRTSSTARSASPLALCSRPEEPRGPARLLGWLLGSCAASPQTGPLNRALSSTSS
structure (smiles),measurement,setting,value
Cc1ccc(Oc2nc3cc(-c4ccc(-c5ccccc5)cc4)c(Cl)cc3[nH]2)cc1C(=O)O,pIC50,[1],5.74
same,pIC50,[2],< 4.07
